The values that follow come from US20070248944A1, “Preventive and Remedy for Collagen or Elastin Metabolic Disorder” (YAMAGUCHI UNIVERSITY, priority 2004, published 2007).

The subject of assay [1] is human abdominal aortic aneurysmal wall tissue. Description: 3H-labeled proline incorporation in human aneurysmal wall culture system. It is filed as cell-based. The note with it: 5 mM peptide; TNF-α 100 ng/ml; 48 hours; p<0.05. As for the experimental part:
Aneurysmal wall tissue excised at the time of operation of human abdominal aortic aneurysms was chopped and then cultured. The ability of aneurysmal wall to newly synthesize collagen was analyzed using 3H-labeled proline that is abundantly contained in collagen according to the Kidwell et al's method (Methods in Enzymology 147: 407-414 (1987)). Specifically, 3H-labeled proline (3 μCi/ml) was added to media to initiate culture. Immediately after culture initiation, a JNK inhibitor peptide (D-JNKI1, 5 mM, ALEXIS) was administered. D-TAT (5 mM, ALEXIS) was used as a control peptide. At 12 hours after peptide administration, stimulation was performed with TNF-α (R&D Systems, 100 ng/ml) TNF-α is an inflammatory cytokine that is increased in human aortic aneurysms and is known to activate JNK. 48 hours later, proteins in the culture supernatants were collected. 3H-labeled proline that had been incorporated for novel synthesis was measured using a scintillation counter.

Assay [2] deals with vascular smooth muscle cells isolated from a rat aorta. The assay can be described thus: Collagen synthesis (3H-labeled proline, collagenase-sensitive fraction) in vascular smooth muscle cell primary culture. It counts as cell-based. The arrangement: dose or concentration left out as unconfirmed. The note with it: 72 hours; serum-free media; p<0.01. The protocol:
An experiment was conducted using a vascular smooth muscle cell primary culture system isolated from a rat aorta. Among newly-synthesized proteins into which 3H-labeled proline had been incorporated, fractions that are specifically degraded by collagen degrading enzymes were subjected to quantitative analysis according to Kidwell et al's method (Methods in Enzymology, 147: 407-414 (1987)). 3H-labeled proline (3 μCi/ml) was added to serum-free media to initiate culture. Immediately after culture initiation, a JNK inhibitor peptide (D-JNK1, 0, 1, 2, and 5 mM, ALEXIS) was administered. At 72 hours after peptide administration, proteins in the culture supernatants were collected. Furthermore, only fractions that had been solubilized by collagen degrading enzymes were collected. 3H-labeled proline that had been incorporated for novel collagen synthesis was measured using a scintillation counter.

In a further assay the test system is MMP-9. The assay can be described thus: MMP-9 secretion in TNF-α-stimulated THP-1 cells, gelatin zymography. It is filed as cell-based, human. The conditions noted are these: 0, 1, 2, and 5 μM peptide, TNF-α 50 ng/ml, 48 hours. As for the experimental part:
To verify the effects of a JNK inhibitor peptide, an experiment was conducted using MMP-9 as an index, which is thought to be important in the pathogenesis of aneurysms, in a cultured cell system. Cells used herein were macrophage cells (THP-1) mainly expressing MMP-9 in human aneurysms. Specifically, a JNK inhibitor peptide D-JNKI1 (ALEXIS) was administered at various concentrations (0, 1, 2, and 5 μM D-JNKI1) in advance to cultured THP-1 cells. D-TAT (ALEXIS) was used as a control peptide. At 24 hours after peptide administration. the cells were stimulated with TNF-α (50 ng/ml), an inflammatory cytokine. 48 hours later, culture solutions were collected and then the amounts of MMP-9 secreted in the culture solutions were subjected to quantitative analysis by the gelatin zymography method.

Another assay concerns lysyl oxidase. Description: Lysyl oxidase mRNA expression in serum-deficient vascular smooth muscle cells, real time PCR. It is filed as cell-based, rat. The arrangement: dose or concentration left out as unconfirmed. The conditions noted are these: serum-deficiency stress; day 6; p<0.01. The protocol:
An experiment was conducted using a vascular smooth muscle cell primary culture system isolated from a rat aorta. Serum deficiency state was created at the initiation of the experiment. JNK of cultured cells was activated by serum-deficiency stress. Immediately after the initiation of the experiment, a JNK inhibitor peptide (D-JNKI1, 5 mM, ALEXIS) was administered. D-TAT (5 mM, ALEXIS) was used as a control peptide. On day 6 after peptide administration, the cells were harvested. Lysyl oxidase expression was subjected to quantitative analysis at the mRNA level using the real time PCR method. Lysyl oxidase (LOX) is an enzyme essential for the maturation of collagen fiber or elastin fiber. Decreased level of LOX indicates lowered ability to synthesize collagen or elastin.
On the technique in general: Quantitative PCR measures a nucleic acid by following its amplification.

For assay [3], the system named is abdominal aortic aneurysm model (angiotensin II-infused apoE knockout mice). Description: Aneurysm therapy and regression in apoE knockout mouse aneurysm model. The note with it: 8 weeks of injection; control group 0% ±13%; p<0.05. It counts as in vivo. The protocol: After completion of 4 weeks of angiotensin II infusion, the lumen diameter of each abdominal aortic aneurysm was measured using ultrasonic diagnostic equipment. The mice were evenly divided into 2 groups based on the measured values. Immediately after grouping, daily subcutaneous injection of the […] inhibitor SP600125 (SP group) or a solution alone (control group) was initiated. The method employed herein for administration of SP600125 and the solution was similar to that in Example 1 above. On week 8 after the initiation of injection, the aneurysm diameter of each abdominal aortic aneurysm was measured again using ultrasonic diagnostic equipment.

The test system is the same in assay [4]. The assay can be described thus: JNK inhibition experiment using an apoE knockout mouse aneurysm model (angiotensin II infusion, prevention). The conditions noted are these: by week 5 after initiation of angiotensin II infusion; control group 6.25%. It is filed as in vivo. As for the experimental part: An abdominal aortic aneurysm model was generated through continuous administration of angiotensin II to apolipoprotein E (apo E) knockout mice according to Daugherty et al's method (J. Clin. Invest. 105: 1605-1612 (2000)). Specifically, mini-osmotic pump (Alzet) was implanted into 24-week-old apoE knockout male mice and angiotensin II (1 μg/min/kg) was continuously infused. These model mice were affected with hyperlipidemia, hypertension, and marked aortic arteriosclerosis. As a result of 4 weeks of angiotensin II infusion, aneurysm formation was observed mainly in the suprarenal abdominal aorta of these mice. Some of these mice died due to aneurysmal rupture. […] Simultaneously with the initiation of continuous infusion of angiotensin II, daily subcutaneous injection of a JNK inhibitor SP600125 (SP group: 8 mice) or a solution (control group: 16 mice) without JNK inhibitor was initiated. The method employed herein for administration of SP600125 was similar to that in Example 1 above. On week 4, the maximum diameter of each abdominal aorta was measured using ultrasonic diagnostic equipment.

As for “c-Jun N-terminal Kinase Peptide Inhibitor 1, D-stereoisomer [D-JNKI1]”, the “3H-labeled proline incorporation decreased by TNF-α” value in assay [1] is “significantly restored”. The “Ability to synthesize collagen” value in assay [2] stood at 1.6±0.1 times. The “MMP-9 secretion due to TNF-α” value with MMP-9 is “suppressed MMP-9 secretion due to TNF-α in a concentration-dependent manner”. Also, the “Lysyl oxidase expression level (mRNA)” value in the assay on lysyl oxidase is listed as “inhibited a decrease in lysyl oxidase expression level”.

Take `Oc1c2ccccc2c2c3c(cccc13)N=N2` [SP600125, Anthra[1-9-cd]pyrazol-6(2H)-one]: the “Reduction percentage of aneurysm diameter (before vs after injection)” value in assay [3] is on record as 17% ±10%. In addition, the Cumulative survival rate in assay [4] is listed as 87.5%.
